From paper PMC8162438, “Cancer cell-selective modulation of mitochondrial respiration and metabolism by potent organogold(III) dithiocarbamates” (Chemical Science, 2020)

Test system: MDA-MB-231
Experiment: Cell cycle analysis by flow cytometry (PI)
Assay type: cell-based
Conditions: MDA-MB-231, 0.1 μM
Description: The effect of 2a on cell cycle was studied by flow cytometry. We observed a time-dependent increase in G0/G1 cell cycle population over 24–72 h period. […] There are several small molecule drug candidates in clinical trials as inhibitors of CDK4/6 and induce G1 cell cycle arrest.[107–110] Thus, our finding is relevant for the design of gold based therapies for refractory tumors such as TNBC.[107–110] After 24 h, a 10% increase can be seen for G1 cell population as well as a 6% decrease in S phase in comparison to the control (Fig. 12B and C). […] The mitochondria control cellular ATP production, it is therefore possible that inhibition of mitochondria respiration and consequently low ATP levels lead to cell cycle arrest.[112–114] […]
with a final volume of 100 µL and incubated overnight at 37 °C. Compound 2a was prepared as a stock in DMSO and diluted to a working concentration of 200 µM with Seahorse XF96 assay buffer and then subsequently serial diluted by 3x to achieve multiple concentrations. The assay was performed using a pneumatic injection method of 2a, with the final injection concentrations of 0.1, 1, 3 , and 11 µM. This was followed by injection of oligomycin (1.5 µM), FCCP (0.6 µM) and rotenone/ antimycin A (0.5 µ M). […]
supplementary information of the following papers. 15-16
The Seahorse XF96 analysis for MRC5 was performed in an identical manner to MDA-MB-231 except that MRC5 cells were seeded at a density of 50,000 cells/well and an FCCP injection concentration of 0.6 µ M was used.
Cell Cycle Analysis. MDA-MB-231 cells were seeded at a density of 2 x 10^5 cells/well in a 6 well clear bottom plate with a final media volume of 2 mL and allowed to adhere overnight 37 °C. Compound 2a was prepared fresh as a stock in DMSO and added at a final concentration of 0.1 µM with a final volume of 2.5 mL. […] These solutions were stored at 4 °C until ready for analysis. […] The samples were then analyzed with FACS. […]

SMILES: C[N+](C)=C1[S][Au-2]2([S]1)[c]1ccccc1Cc1cccc[n+]12.F[P-](F)(F)(F)(F)F (stereo not drawn) [2a]
- Decrease in S phase versus control (24 h): 6%
- Increase in G1 cell population versus control (24 h): 10%
- G1 phase change over 72 h (72 h): significant increase in G1 phase
